# Experimental data from patent US20250136574A1, “SELECTIVE AGENTS TARGETING MYCOBACTERIUM TUBERCULOSIS” (priority 2022, published 2025).
# “And” between values parts separate entries of the source, which are not always exact repeats. Equal entries are not always repeated. Where two headings read alike, the source gives them in different places. Marks after values point to notes of the source that are not given here.
# Key:
# [1] = test system: wild-type (WT) Mtb Erdman strain; assay: MABA, Mtb Erdman strain; type: cell-based; details: Mycobacterium tuberculosis
# [2] = CC50 cytotoxicity, Promega CellTiter-Glo Luminescent Cell Viability Assay; type: cell-based, African green monkey; details: African green monkey, Vero cells; 72-hour incubation, CellTiter-Glo, n = 3
# Method: (§1) Cytotoxicity assays were conducted to measure toxicity of compounds at single concentration in Vero TMPRSS2 cells by using quantitation of ATP to indicate metabolically active cells. Vero cells (derived from African Green Monkey kidney epithelial tissue) were grown in Dulbecco's Modified Eagle Medium (DMEM) supplemented with 10% fetal bovine serum (FBS), 10 mM HEPES buffered saline, and 2 mM L-glutamine. 5,000 cells per well were seeded into a 96-well plate containing two-fold titrations of compounds. The concentration of DMSO was maintained at 0.5% for all wells to avoid toxicity. The plates were incubated for 72 hours, at which point they were acclimatized to room temperature for 30 minutes. 25 μL of the substrate/buffer solution from the Promega CellTiter-Glo Luminescent Cell Viability Assay kit was added to each well. The plates were shaken at a low orbital speed for 3 minutes and let rest at room temperature for 10 minutes, after which luminescence was measured using a BioTek Synergy H1 Microplate Reader H1M. The positive control was defined as wells containing cells without compounds.
# (§2) Percent viability was input into PRISM GraphPad to calculate CC50 values by plotting as a non-linear regression curve.
# (§3) Given the toxicity of an initial hit compound in mammalian cells and the potential concern for toxicity more generally with nitro-containing drugs, the selected compounds were also examined for toxicity in a mammalian cell line using Promega's Cell Titer-Glo assay to assess cellular ATP levels as a read-out of viability. […] A selectivity index (SI) was then calculated for each compound by determining the ratio of the CC50 in Vero cells to the MABA IC50 in Mtb, where the larger the SI, the safer the compound is in eukaryotic cells relative to its effective dose. […] Therefore, not only were the SAR efforts successful in identifying compounds with increased potency against Mtb, but also, the toxicity concerns of the original hit compound were overcome.
# Vero cells = assay: as above; type: cell-based, African green monkey; details: for selectivity index (SI): ratio of CC50 in Vero cells to MABA IC50 in Mtb; for CC50: 72-hour incubation, CellTiter-Glo, n = 3
# Method: as §1, §2, §3
# wild-type (WT) Mtb = type: cell-based, Mycobacterium tuberculosis
# [3] = test system: wild-type (WT) Mtb HN878 strain; assay: MABA, Mtb HN878 strain; type: cell-based; details: Mycobacterium tuberculosis; read-out: IC50 ± S.D. (μM) HN878
# PBS solubility = details: highest concentration with no detectable precipitate; phosphate-buffered saline
# Vero TMPRSS2 cells = assay: Cytotoxicity at single concentration, CellTiter-Glo ATP quantitation; type: cell-based, African Green Monkey; details: 50 uM, 72 hours
# Method: as §1
# Percent viability was calculated as follows: […]
# [4] = read-out: IC50 S.D. (μM) Mtb Erdman strain
# [5] = read-out: IC50 ± S.D. (μM) Erdman
compound,measurement,setting,value
CCCCCCC#Cc1cncc(-c2nnc(SCc3ccc([N+](=O)[O-])o3)n2C2CC2)c1 [drawing 137],IC50,[1]; [4],0.05 ± 0.003 µM
same,CC50 at 72 hour,[2],7.8 ± 0.48 µM
same,selectivity index (SI),Vero cells,165
CCCCCCC#Cc1cncc(-c2nnc(SCc3ccc(Cl)c(F)c3)n2C)c1 [drawing 52],IC50,wild-type (WT) Mtb,4.1 µM
CCCCCCC#Cc1cncc(-c2nnc(SCc3ccc(Cl)cc3)n2Cc2ccccc2)c1,IC50,wild-type (WT) Mtb,> 200 µM
CCCCCCC#Cc1cncc(-c2nnc(SCc3ccc(Cl)c(F)c3)[nH]2)c1,IC50,[1]; [4],5.4 ± 0.03 µM
same,CC50 at 72 hour,[2],> 125 µM
same,selectivity index (SI),Vero cells,>23
CCCCCCC#Cc1cncc(-c2nnc(SCc3ccc([N+](=O)[O-])cc3)n2C)c1 [drawing 55 R = NO2],IC50,wild-type (WT) Mtb,5.9 µM
CCCCCCC#Cc1cncc(-c2nnc(SCc3ccc(C#N)cc3)n2C)c1 [drawing 130],IC50,[1]; [4],27 ± 0.4 µM
same,CC50,Vero cells,> 100 µM
same,selectivity index (SI),Vero cells,>3.7
CCCCCCC#Cc1cncc(-c2nnc(SCc3ccc(Cl)cc3)n2C)c1 [drawing 92],IC50,[1]; [5],1.5 ± 0.19 µM
same,IC50,[3],0.85 ± 0.043 µM
CCCCCCC#Cc1cncc(-c2nnc(SCCc3ccc(Cl)cc3)n2C)c1,IC50,wild-type (WT) Mtb,8.2 µM
CCCCCCC#Cc1cncc(-c2nnc(SCc3ccc([N+](=O)[O-])o3)n2C)c1 [nitrofuran bearing analog],antimycobacterial activity (in words),"wild-type (WT) Mtb; text b333-b334, MABA",most potent
CCCCCCC#Cc1cncc(-c2nnc(SCc3ccc(OC)cc3)n2C)c1 [drawing 55 R = MeO],IC50,wild-type (WT) Mtb,8.7 µM
CCCCCCC#Cc1cncc(-c2nnc(SCc3ncc([N+](=O)[O-])n3C)n2C)c1,IC50,wild-type (WT) Mtb,94 µM
CCCCCCC#Cc1cncc(-c2nnc(SCc3ccc([N+](=O)[O-])cc3)n2C)c1 [drawing 94],IC50,[1]; [5],2.9 ± 0.45 µM
same,IC50,[3],1.3 ± 0.15 µM
CCCCCCC#Cc1cncc(-c2nnc(SCc3ccc(Cl)cc3)n2C)c1 [drawing 129],IC50,[1]; [4],5.4 ± 0.5 µM
same,CC50 at 72 hour,[2],50 ± 5.5 µM
same,selectivity index (SI),Vero cells,9.3
"CCCCCCC#Cc1cncc(-c2nnc(SCc3cc([N+](=O)[O-])cc([N+](=O)[O-])c3)n2C)c1 [3,5-dinitrobenzyl analog]",antimycobacterial activity,"wild-type (WT) Mtb; text b333, MABA",0.5 µM
CCCCCCC#Cc1cncc(-c2nnc(SCc3ccc(C)cc3)n2C)c1 [drawing 55 R = Me],IC50,wild-type (WT) Mtb,6.1 µM
CCCCCCC#Cc1cncc(-c2nnc(SCc3cc([N+](=O)[O-])cc([N+](=O)[O-])c3)n2C)c1 [drawing 95],IC50,[1]; [5],0.17 ± 0.016 µM
same,IC50,[3],0.061 ± 0.012 µM
CCCCCCC#Cc1ccc(-c2nnc(SCc3ccc(Cl)cc3)n2C)cn1,IC50,wild-type (WT) Mtb,> 200 µM
Cn1c(SCc2ccc(Cl)cc2)nnc1-c1cncc(C#Cc2ccccc2)c1 [drawing 88],IC50,wild-type (WT) Mtb,4 µM
Cn1c(SCc2ccc(Cl)cc2)nnc1-c1cccnc1,IC50,wild-type (WT) Mtb,> 200 µM
CCCCCCC#Cc1cncc(-c2nnc(SCc3cc(C(F)(F)F)cc(C(F)(F)F)c3)n2C)c1,IC50,wild-type (WT) Mtb,> 200 µM
Cn1c(SCc2ccc(Cl)cc2)nnc1-c1cncc(C#Cc2ccccc2)c1 [drawing 138],IC50,[1]; [4],2.2 ± 0.4 µM
same,CC50,Vero cells,> 100 µM
same,selectivity index (SI),Vero cells,>46
CCCCCCC#Cc1cncc(-c2nnc(SCc3ccc(C#N)cc3)n2C)c1 [drawing 55 R = CN],IC50,wild-type (WT) Mtb,8.9 µM
CCCCCCC#Cc1cncc(-c2nnc(SCc3ccc(Cl)cc3)n2-c2ccccc2)c1,IC50,wild-type (WT) Mtb,> 200 µM
CCCCCCC#Cc1cncc(-c2nnc(SCc3ccc([N+](=O)[O-])o3)n2C)c1 [drawing 135],IC50,[1]; [4],0.1 ± 0.01 µM
same,CC50 at 72 hour,[2],33 ± 2.9 µM
same,selectivity index (SI),Vero cells,314
CCCCCCC#Cc1cncc(-c2nnc(Sc3ccc(Cl)cc3)n2C)c1,IC50,wild-type (WT) Mtb,13 µM
C#Cc1cncc(-c2nnc(SCc3ccc(Cl)cc3)n2C)c1 [drawing 87],IC50,wild-type (WT) Mtb,86 µM
CCCCCCC#Cc1cccc(-c2nnc(SCc3ccc(Cl)cc3)n2C)c1 [drawing 84],IC50,wild-type (WT) Mtb,8.5 µM
CCCCCCC#Cc1cncc(-c2nnc(Sc3ccc([N+](=O)[O-])c4nonc34)n2C)c1,IC50,wild-type (WT) Mtb,27 µM
CCCCCCC#Cc1cncc(-c2nnc(SCc3ccc4nonc4c3)n2C)c1,IC50,wild-type (WT) Mtb,> 200 µM
CCCCCCC#Cc1cncc(-c2nnc(SCc3ccc([N+](=O)[O-])cc3)n2C)c1 [drawing 131],IC50,[1]; [4],22 ± 13 µM
same,CC50 at 72 hour,[2],27 ± 5.4 µM
same,selectivity index (SI),Vero cells,1.3
CCCCCCC#Cc1cncc(-c2nnc(SCc3cc(F)cc(F)c3)n2C)c1 [drawing 69],IC50,wild-type (WT) Mtb,8 µM
CCCCCCC#Cc1cncc(-c2nnc(SCCn3c([N+](=O)[O-])cnc3C)n2C)c1 [drawing 58],IC50,wild-type (WT) Mtb,22 µM
CCCCCCC#Cc1cncc(-c2nnc(SCc3cc([N+](=O)[O-])cc([N+](=O)[O-])c3)n2C)c1 [drawing 133],IC50,[1]; [4],0.34 ± 0.01 µM
same,CC50,Vero cells,> 100 µM
same,selectivity index (SI),Vero cells,>294
CCCCCCC#Cc1cncc(-c2nnc(SCc3ccc(-c4ccccc4)cc3)n2C)c1 [drawing 55 R = Ph],IC50,wild-type (WT) Mtb,197 µM
CCCCCCC#Cc1cncc(-c2nnc(SCc3ccc(Cl)cc3)n2C2CC2)c1 [drawing 136],IC50,[1]; [4],5.1 ± 0.7 µM
same,CC50 at 72 hour,[2],25 ± 2.5 µM
same,selectivity index (SI),Vero cells,4.8
CCCCCCC#Cc1cncc(-c2nnc(SCc3ccc(C(F)(F)F)cc3)n2C)c1 [drawing 55 R = CF3],IC50,wild-type (WT) Mtb,44 µM
CCCCCCC#Cc1cncc(-c2nnc(SCc3ccc(Cl)cc3)n2CC)c1,IC50,wild-type (WT) Mtb,4.7 µM
CCCCCCC#Cc1cncc(-c2nnc(SCc3ccc([N+](=O)[O-])cc3[N+](=O)[O-])n2C)c1,IC50,[1]; [4],1.1 ± 0.1 µM
same,CC50 at 72 hour,[2],28 ± 1 µM
same,selectivity index (SI),Vero cells,27
"COC(=O)[C@H]1[C@H]2C[C@@H]3c4[nH]c5cc(OC)ccc5c4CCN3C[C@H]2C[C@@H](OC(=O)c2cc(OC)c(OC)c(OC)c2)[C@@H]1OC [reserpine, reference compound]",PBS solubility (μM),PBS solubility,7.8^[d] μM
CCCCCCC#Cc1cncc(-c2nnc(SCc3ccc(F)c([N+](=O)[O-])c3)n2C)c1,IC50,wild-type (WT) Mtb,44 µM
CCCCCCC#Cc1cncc(-c2nnc(SCc3cccc(Cl)c3)n2C)c1 [drawing 64 R = Cl],IC50,wild-type (WT) Mtb,15 µM
CCCCCCC#Cc1cncc(-c2nnc(SCc3ccc(Cl)cc3)n2C)c1 [drawing 51],IC50,wild-type (WT) Mtb,5.3 µM
CCCCCCC#Cc1cncc(-c2nnc(SCc3ccc(Cl)cc3)n2C2CC2)c1 [drawing 77],IC50,wild-type (WT) Mtb,3.3 µM
CCCCCCC#Cc1cncc(-c2nnc(SCc3cc([N+](=O)[O-])cc(C(F)(F)F)c3)n2C)c1,IC50,wild-type (WT) Mtb,> 200 µM
CCCCCCC#Cc1cncc(-c2nnc(SCc3ccc(Br)cc3)n2C)c1 [drawing 55 R = Br],IC50,wild-type (WT) Mtb,4.6 µM
CCCC#Cc1cncc(-c2nnc(SCc3ccc(Cl)cc3)n2C)c1,IC50,wild-type (WT) Mtb,15 µM
Cn1c(SCc2ccc(Cl)cc2)nnc1-c1cncc(Br)c1,IC50,wild-type (WT) Mtb,> 200 µM
CCCCCCC#Cc1cncc(-c2nnc(SCc3ccc(Cl)cc3)n2CCCC)c1,IC50,wild-type (WT) Mtb,> 200 µM
CCCCCCC#Cc1cncc(-c2nnc(SCc3ccc([N+](=O)[O-])o3)n2C2CC2)c1 [drawing 80],IC50,wild-type (WT) Mtb,< 0.78 µM
CCCCCCC#Cc1cncc(-c2nnc(SCc3ccc(F)cc3)n2C)c1 [drawing 55 R = F],IC50,wild-type (WT) Mtb,6.9 µM
CCCCCCC#Cc1cncc(-c2nnc(SCc3ccc(C#N)cc3)n2C)c1 [drawing 93],IC50,[1]; [5],5.3 ± 1.17 µM
same,IC50,[3],2.3 ± 0.2 µM
CCCCCCC#Cc1cncc(-c2nnc(SCc3ccc(Cl)c(Cl)c3)n2C)c1 [drawing 67],IC50,wild-type (WT) Mtb,6.8 µM
CCCCCCC#Cc1cncc(-c2nnc(SCc3ccc(Cl)cc3[N+](=O)[O-])n2C)c1,IC50,wild-type (WT) Mtb,> 200 µM
"NNC(=O)c1ccncc1 [INH, isoniazid, reference compound]",IC50,[1]; [5],0.18 ± 0.014 µM
same,IC50,[3],0.12 ± 0.00051 µM
CCCCCCC#Cc1cncc(-c2nnc(SCc3ccc([N+](=O)[O-])o3)n2C)c1 [drawing 61],IC50,wild-type (WT) Mtb,0.55 µM
CCCCCCC#Cc1cncc(-c2nnc(SC)n2C)c1,IC50,wild-type (WT) Mtb,48 µM
"CCC(CC)COC(=O)[C@H](C)N[P@](=O)(OC[C@H]1O[C@@](C#N)(c2ccc3c(N)ncnn23)[C@H](O)[C@@H]1O)Oc1ccccc1 [remdesivir, reference compound]",% Cell Viability Average,Vero TMPRSS2 cells,94.25% and 93.47% and 89.22%
same,% Cell Viability Replicate 1,Vero TMPRSS2 cells,94.32% and 91.48% and 89.25%
same,% Cell Viability Replicate 2,Vero TMPRSS2 cells,94.19% and 95.46% and 89.19%
